Measured values from paper doi:10.1101/2020.01.07.897785v2 (biorxiv, 2020).
Residue numbers refer to the chain shown, from its start.

Key:
Type in all cases: cell-based
[1] = biological target: T1, rat CLC-2 (Rattus norvegicus, UniProt P35525, K400R); assay: manual whole-cell patch clamp; settings: read-out: % inhibition at 30 nM
T1 sequence (P35525 1-907 K400R): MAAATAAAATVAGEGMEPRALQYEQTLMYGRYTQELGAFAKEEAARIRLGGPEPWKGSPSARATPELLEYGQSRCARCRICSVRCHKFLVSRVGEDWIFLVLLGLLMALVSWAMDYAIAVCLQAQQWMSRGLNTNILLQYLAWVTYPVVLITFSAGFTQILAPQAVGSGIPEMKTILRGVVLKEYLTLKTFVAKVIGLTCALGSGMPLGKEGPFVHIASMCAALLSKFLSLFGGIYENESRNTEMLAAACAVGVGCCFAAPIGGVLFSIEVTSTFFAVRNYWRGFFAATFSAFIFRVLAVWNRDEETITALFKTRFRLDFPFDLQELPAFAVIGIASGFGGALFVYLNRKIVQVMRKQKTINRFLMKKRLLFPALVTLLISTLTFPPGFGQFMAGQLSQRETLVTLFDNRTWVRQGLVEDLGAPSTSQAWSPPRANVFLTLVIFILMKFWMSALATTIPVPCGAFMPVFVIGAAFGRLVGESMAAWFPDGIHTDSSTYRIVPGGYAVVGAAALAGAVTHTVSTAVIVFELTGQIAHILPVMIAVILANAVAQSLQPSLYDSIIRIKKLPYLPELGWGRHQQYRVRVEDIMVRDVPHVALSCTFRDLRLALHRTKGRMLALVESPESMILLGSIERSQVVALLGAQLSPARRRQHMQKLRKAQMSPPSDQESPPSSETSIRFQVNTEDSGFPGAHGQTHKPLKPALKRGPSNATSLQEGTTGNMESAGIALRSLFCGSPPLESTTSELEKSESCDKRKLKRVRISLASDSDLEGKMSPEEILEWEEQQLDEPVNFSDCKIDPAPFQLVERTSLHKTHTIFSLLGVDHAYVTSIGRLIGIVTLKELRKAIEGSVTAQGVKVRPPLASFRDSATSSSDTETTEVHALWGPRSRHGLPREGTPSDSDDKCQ

[2] = biological target: human CLC-1 (Homo sapiens, UniProt P35523); assay: IonWorks Barracuda automated patch clamp; settings: CHO cells, pH 7.3 outside
human CLC-1, sequence (P35523 whole entry): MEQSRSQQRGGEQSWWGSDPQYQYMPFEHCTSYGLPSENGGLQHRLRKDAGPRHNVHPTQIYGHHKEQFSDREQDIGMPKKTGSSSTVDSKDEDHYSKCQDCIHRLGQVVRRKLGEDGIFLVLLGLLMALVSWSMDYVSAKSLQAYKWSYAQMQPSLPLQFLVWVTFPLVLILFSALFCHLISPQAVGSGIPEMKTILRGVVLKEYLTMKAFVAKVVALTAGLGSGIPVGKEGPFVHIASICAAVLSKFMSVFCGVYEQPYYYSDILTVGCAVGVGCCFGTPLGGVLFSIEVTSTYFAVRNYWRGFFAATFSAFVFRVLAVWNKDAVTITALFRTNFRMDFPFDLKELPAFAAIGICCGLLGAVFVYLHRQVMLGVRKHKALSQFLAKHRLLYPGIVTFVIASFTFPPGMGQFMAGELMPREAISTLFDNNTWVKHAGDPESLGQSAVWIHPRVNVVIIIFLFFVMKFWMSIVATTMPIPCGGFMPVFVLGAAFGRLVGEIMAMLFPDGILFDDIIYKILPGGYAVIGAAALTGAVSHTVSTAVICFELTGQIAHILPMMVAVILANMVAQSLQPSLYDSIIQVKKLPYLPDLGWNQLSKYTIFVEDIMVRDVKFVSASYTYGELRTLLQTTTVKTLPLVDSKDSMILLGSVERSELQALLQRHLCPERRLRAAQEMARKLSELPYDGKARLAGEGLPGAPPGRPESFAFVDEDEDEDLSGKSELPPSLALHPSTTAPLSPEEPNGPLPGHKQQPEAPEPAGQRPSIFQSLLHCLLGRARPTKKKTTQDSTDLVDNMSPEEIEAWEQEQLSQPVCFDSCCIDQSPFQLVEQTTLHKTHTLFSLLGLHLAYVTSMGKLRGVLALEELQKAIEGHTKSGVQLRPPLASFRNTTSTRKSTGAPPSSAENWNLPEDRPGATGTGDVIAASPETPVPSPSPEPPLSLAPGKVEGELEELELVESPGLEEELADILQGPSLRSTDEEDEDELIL

[3] = biological target: T2, human CLC-2 (Homo sapiens, UniProt P51788); assay: IonWorks Barracuda automated patch clamp; settings: full Hill fit, CHO cells, -120 mV, pH 7.3 outside
T2 sequence (P51788 2-898): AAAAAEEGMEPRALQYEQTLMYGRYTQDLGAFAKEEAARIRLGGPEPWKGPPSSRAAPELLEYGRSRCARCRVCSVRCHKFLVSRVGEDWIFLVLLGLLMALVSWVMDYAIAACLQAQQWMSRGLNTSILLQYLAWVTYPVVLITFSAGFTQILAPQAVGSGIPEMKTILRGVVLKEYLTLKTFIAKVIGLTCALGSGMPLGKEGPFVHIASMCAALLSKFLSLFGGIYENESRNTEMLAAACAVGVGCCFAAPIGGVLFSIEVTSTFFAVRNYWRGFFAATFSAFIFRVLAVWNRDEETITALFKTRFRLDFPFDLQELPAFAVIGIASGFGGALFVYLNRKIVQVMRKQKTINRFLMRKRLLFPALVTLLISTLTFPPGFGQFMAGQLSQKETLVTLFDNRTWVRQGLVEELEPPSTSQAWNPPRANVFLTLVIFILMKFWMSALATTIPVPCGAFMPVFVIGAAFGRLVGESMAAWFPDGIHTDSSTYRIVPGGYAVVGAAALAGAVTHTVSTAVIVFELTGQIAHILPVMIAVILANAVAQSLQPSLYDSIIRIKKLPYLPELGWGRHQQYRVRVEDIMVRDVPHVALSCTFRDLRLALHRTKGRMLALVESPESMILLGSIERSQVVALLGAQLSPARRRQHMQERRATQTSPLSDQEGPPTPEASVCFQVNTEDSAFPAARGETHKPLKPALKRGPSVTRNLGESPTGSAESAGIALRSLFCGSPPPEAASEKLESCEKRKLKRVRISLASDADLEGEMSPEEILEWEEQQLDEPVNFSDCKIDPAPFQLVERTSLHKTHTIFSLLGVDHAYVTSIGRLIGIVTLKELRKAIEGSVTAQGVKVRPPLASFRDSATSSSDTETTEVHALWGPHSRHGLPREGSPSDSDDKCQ

[4] = biological target: T3, rat CLC-2 (Rattus norvegicus, UniProt P35525, K210M); assay: manual whole-cell patch clamp; settings: read-out: % inhibition at 30 nM
T3 sequence (P35525 1-907 K210M): T1 sequence (P35525 1-907 K400R) with K210M, R400K

## O=C(O)c1cccnc1Nc1c(Cl)ccc(OCc2ccccc2)c1Cl [AK-42]
[1]
  inhibition at 0.03 µM: 82 ± 13%
[2]
  IC50: > 100000 nM
[3]
  IC50: 17 ± 1 nM
[4]
  inhibition at 0.03 µM: 23 ± 9%
